Measurements reported in the Kinase Knowledgebase extract (Sharma et al. 2016).
In brackets after ≈: the same amount, converted by molar mass.

Molecular target: EGFR (UniProt P00533)
Sequence (P00533 whole entry, looked up): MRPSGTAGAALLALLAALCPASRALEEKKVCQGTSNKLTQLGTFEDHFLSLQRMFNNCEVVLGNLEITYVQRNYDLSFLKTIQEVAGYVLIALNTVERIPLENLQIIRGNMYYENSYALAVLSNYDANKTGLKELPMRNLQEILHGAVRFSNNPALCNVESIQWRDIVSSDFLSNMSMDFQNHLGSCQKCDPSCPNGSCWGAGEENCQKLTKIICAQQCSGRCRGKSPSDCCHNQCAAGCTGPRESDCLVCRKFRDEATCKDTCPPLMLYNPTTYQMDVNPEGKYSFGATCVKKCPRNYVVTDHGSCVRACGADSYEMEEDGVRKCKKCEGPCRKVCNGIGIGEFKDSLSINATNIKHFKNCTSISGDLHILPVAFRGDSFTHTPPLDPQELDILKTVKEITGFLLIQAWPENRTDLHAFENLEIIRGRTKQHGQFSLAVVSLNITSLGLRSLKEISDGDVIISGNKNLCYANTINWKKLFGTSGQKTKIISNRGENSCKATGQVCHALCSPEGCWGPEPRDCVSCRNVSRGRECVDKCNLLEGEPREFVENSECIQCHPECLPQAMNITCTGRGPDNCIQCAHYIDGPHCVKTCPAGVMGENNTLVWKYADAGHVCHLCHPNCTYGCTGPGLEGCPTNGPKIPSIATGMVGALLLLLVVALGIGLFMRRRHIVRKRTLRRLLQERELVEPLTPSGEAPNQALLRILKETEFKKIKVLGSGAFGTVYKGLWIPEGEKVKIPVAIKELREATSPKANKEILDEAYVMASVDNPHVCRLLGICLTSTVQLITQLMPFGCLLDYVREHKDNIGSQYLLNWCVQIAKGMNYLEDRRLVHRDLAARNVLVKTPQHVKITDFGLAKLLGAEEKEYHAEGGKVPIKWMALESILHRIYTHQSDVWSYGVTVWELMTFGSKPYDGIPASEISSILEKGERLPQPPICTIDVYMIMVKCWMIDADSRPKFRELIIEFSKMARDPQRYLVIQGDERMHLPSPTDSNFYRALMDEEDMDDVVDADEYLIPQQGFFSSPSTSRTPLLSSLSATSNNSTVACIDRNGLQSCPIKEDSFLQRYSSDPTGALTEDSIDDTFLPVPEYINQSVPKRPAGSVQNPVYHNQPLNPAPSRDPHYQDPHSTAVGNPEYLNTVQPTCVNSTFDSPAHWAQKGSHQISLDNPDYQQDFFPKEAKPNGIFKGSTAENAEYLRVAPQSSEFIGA

Row | Compound | IC50
1 | COc1ccc(Nc2ncnc(Nc3ccc4c(c3)C(=O)OC4)n2)cc1OC | 2.4 to 3.5 µg/mL (≈ 6.33 to 9.23 µM)
2 | COc1ccc(Nc2ncnc(-n3c(N)nc4ccccc43)n2)cc1OCCN1CCOCC1 | > 4.5 µg/mL
3 | NC(=O)c1cccc(Nc2ncnc(-n3c(=O)[nH]c4ccccc43)n2)c1 | > 4.5 µg/mL
4 | O=S(=O)(O)c1cccc(Nc2ncnc(Nc3cc(-c4ccco4)[nH]n3)n2)c1 | < 0.4 µg/mL
5 | O=c1[nH]c2ccccc2n1-c1ncnc(Nc2ccc(F)c(Cl)c2)n1 | > 4.5 µg/mL
6 | Cc1ccc2c(c1)CCCN2c1ncnc(Nc2cccc(Cl)c2C)n1 | 2.4 to 3.5 µg/mL (≈ 6.56 to 9.57 µM)
7 | COc1cc(C)c(Nc2ncnc(Nc3cc(-c4ccc(C)cc4)n[nH]3)n2)cc1OC | > 4.5 µg/mL
8 | COc1cc(Nc2ncnc(Nc3ccc(Oc4ccccc4)cc3)n2)cc(OC)c1OC | < 0.4 µg/mL
9 | c1cc(Cn2ccnn2)cc(Nc2ncnc(-n3c(Nc4ccc5[nH]ccc5c4)nc4ccccc43)n2)c1 | 2.4 to 3.5 µg/mL (≈ 4.8 to 7.01 µM)
10 | COc1cc(Nc2ncnc(Nc3cc(C(F)(F)F)ccc3F)n2)cc(OC)c1OC | < 0.4 µg/mL
11 | c1ccc(Nc2ncccc2-c2ncnc(Nc3cccc(Cn4ccnn4)c3)n2)cc1 | > 4.5 µg/mL
12 | COc1ccc(Nc2ncnc(N(C)c3ccccc3)n2)cc1OC | < 0.4 µg/mL
13 | Cc1ccc2c(c1)CCCN2c1ncnc(Nc2cccc(Cc3nnn[nH]3)c2)n1 | < 0.4 µg/mL
14 | COc1cc(Nc2ncnc(Nc3ccc(N4CCOCC4)cc3)n2)cc(OC)c1OC | > 4.5 µg/mL
15 | CN(c1cccc(Cl)c1)c1ncnc(N[C@@H]2CCN(Cc3ccccc3)C2)n1 | > 4.5 µg/mL
16 | COc1cc(Nc2ncnc(Nc3cccc4ccccc34)n2)cc(OC)c1OCCN1CCOCC1 | < 0.4 µg/mL
17 | COc1cc(Nc2ncnc(-n3c(N)nc4ccccc43)n2)cc(OC)c1OCCN1CCOCC1 | > 4.5 µg/mL
18 | CC(=O)N1CCc2cc(Nc3ncnc(N4CCCc5cc(C)ccc54)n3)ccc21 | < 0.4 µg/mL
19 | c1ccc(COc2cccc(Nc3ncnc(-c4cccs4)n3)c2)cc1 | > 4.5 µg/mL
20 | COc1cc(Nc2ncnc(Nc3ccc(NC(C)=O)c(C(F)(F)F)c3)n2)cc(OC)c1OC | 2.4 to 3.5 µg/mL (≈ 5.02 to 7.32 µM)
21 | Nc1ncnc(Nc2cccc(Cl)c2)n1 | > 4.5 µg/mL
22 | COc1ccc(Sc2ncnc(Nc3cc(OC)c(OC)c(OC)c3)n2)cc1 | > 4.5 µg/mL
23 | COc1cc(Nc2ncnc(-n3c(NCc4ccc(F)cc4)nc4ccccc43)n2)cc(OC)c1OC | > 4.5 µg/mL
24 | COc1cc(Nc2ncnc(Nc3ccc(O)cc3C)n2)cc(OC)c1OC | 2.4 to 3.5 µg/mL (≈ 6.26 to 9.13 µM)
25 | COc1cc(Nc2ncnc(-c3cccnc3Nc3ccc(C(C)=O)cc3)n2)cc(OC)c1OC | > 4.5 µg/mL
26 | CNc1nc2ccccc2n1-c1ncnc(Nc2cc(OC)c(OC)c(OC)c2)n1 | > 4.5 µg/mL

Row | Compound | IC50
27 | COC(=O)c1ccc(-c2cc(Nc3ncnc(NC4=NC(=O)CS4)n3)[nH]n2)cc1 | 0.4 to 2.4 µg/mL (≈ 0.975 to 5.85 µM)
28 | COc1ccc(Nc2ncnc(NCCC#N)n2)cc1OC | > 4.5 µg/mL
29 | O=C(O)Cc1cccc(Nc2ncnc(Nc3ccc(Cl)cc3F)n2)c1 | 0.4 to 2.4 µg/mL (≈ 1.07 to 6.42 µM)
30 | NC(=O)Cc1cccc(Nc2ncnc(-n3c(NCc4ccccc4)nc4ccccc43)n2)c1 | < 0.4 µg/mL
31 | COc1ccc(Nc2ncnc(N(C)c3ccccc3Cl)n2)cc1OC | < 0.4 µg/mL
32 | COc1cc(Nc2ncnc(Nc3ccc(Cl)cc3F)n2)cc(OC)c1OC | < 0.4 µg/mL
33 | COc1cc(Nc2ncnc(N3CCN(c4ccccn4)CC3)n2)cc(OC)c1OC | > 4.5 µg/mL
34 | COc1ccc(-c2ncnc(Nc3cc(OC)c(OC)c(OC)c3)n2)cc1OC | 3.5 to 4.5 µg/mL (≈ 8.78 to 11.3 µM)
35 | COc1cc(Nc2ncnc(Nc3ccc(N)cc3)n2)cc(OC)c1OC | 0.4 to 2.4 µg/mL (≈ 1.09 to 6.51 µM)
36 | CN(c1cccc(Cl)c1)c1ncnc(NCCOCCO)n1 | > 4.5 µg/mL
37 | Cc1ccc2c(c1)CCCN2c1ncnc(NCc2ccccn2)n1 | > 4.5 µg/mL
38 | CC(C)(C)c1cc(Nc2ncnc(Nc3ccc(CC(=O)O)cc3)n2)[nH]n1 | 0.4 to 2.4 µg/mL (≈ 1.09 to 6.53 µM)
39 | COc1ccc(Nc2ncnc(N(C)c3ccc(C(=O)O)cc3)n2)cc1OC | > 4.5 µg/mL
40 | COc1cc(Nc2ncnc(Nc3ccc4[nH]ncc4c3)n2)cc(OC)c1OC | < 0.4 µg/mL
41 | CCc1ccc(Nc2ncnc(-n3c(N)nc4ccccc43)n2)cc1 | 0.4 to 2.4 µg/mL (≈ 1.21 to 7.24 µM)
42 | COc1cc(Nc2ncnc(N(CC(=O)OC(C)(C)C)c3ccc4c(c3)OCO4)n2)cc(OC)c1OC | 2.4 to 3.5 µg/mL (≈ 4.69 to 6.84 µM)
43 | CC(=O)NS(=O)(=O)c1ccc(Nc2ncnc(N(C)c3cccc(Cl)c3)n2)cc1 | < 0.4 µg/mL
44 | COc1cc(Nc2ncnc(-c3ccc(F)cc3)n2)cc(OC)c1OC | > 4.5 µg/mL
45 | COc1cc(Nc2ncnc(-c3cccnc3NCc3ccc(F)cc3)n2)cc(OC)c1OCCN1CCOCC1 | 2.4 to 3.5 µg/mL (≈ 4.27 to 6.23 µM)
46 | Cc1cccc(Nc2ncnc(Nc3ccc4c(cnn4Cc4ccccc4)c3)n2)c1 | < 0.4 µg/mL
47 | CCN(CC)CCNc1ncnc(N(C)c2cccc(Cl)c2)n1 | 0.4 to 2.4 µg/mL (≈ 1.19 to 7.17 µM)
48 | COc1ccc(Nc2ncnc(Nc3ccc4[nH]ccc4c3)n2)cc1OC | < 0.4 µg/mL
49 | COc1ccccc1Nc1nc2ccccc2n1-c1ncnc(Nc2cc(OC)c(OC)c(OC)c2)n1 | > 4.5 µg/mL
50 | COc1cc(Nc2ncnc(-c3ccc(N4CCNCC4)nc3)n2)cc(OC)c1OC | 3.5 to 4.5 µg/mL (≈ 8.26 to 10.6 µM)
51 | COc1cc(Nc2ncnc(-n3c(=O)sc4ccccc43)n2)cc(OC)c1OC | > 4.5 µg/mL
52 | CCN(CC)CCOc1ccc(Nc2ncnc(Nc3cc(OC)c(OC)c(OC)c3)n2)cc1OC | 0.4 to 2.4 µg/mL (≈ 0.802 to 4.81 µM)

Row | Compound | IC50
53 | COc1cc(Nc2ncnc(-n3c(NC4CCc5ccccc54)nc4ccccc43)n2)cc(OC)c1OC (stereo not drawn) | 2.4 to 3.5 µg/mL (≈ 4.71 to 6.87 µM)
54 | COc1cc(Nc2ncnc(-n3c(=O)[nH]c4ccccc43)n2)cc(OCCN2CCOCC2)c1OC | > 4.5 µg/mL
55 | O=c1[nH]c2ccccc2n1-c1ncnc(Nc2ccc(C(F)(F)F)cc2)n1 | > 4.5 µg/mL
56 | COc1cc(Nc2ncnc(-n3c(NCc4ccccn4)nc4ccccc43)n2)cc(OC)c1OCCn1ccnn1 | > 4.5 µg/mL
57 | COc1cc(Nc2ncnc(-n3c(=O)oc4ccccc43)n2)cc(OC)c1OC | 0.4 to 2.4 µg/mL (≈ 1.01 to 6.07 µM)
58 | Nc1nc2ccccc2n1-c1ncnc(Nc2cccnc2)n1 | 2.4 to 3.5 µg/mL (≈ 7.89 to 11.5 µM)
59 | COc1cc(Nc2ncnc(-c3c(O)[nH]c4ccc(Cl)cc34)n2)cc(OC)c1OC | 2.4 to 3.5 µg/mL (≈ 5.61 to 8.18 µM)
60 | COc1cc(Nc2ncnc(Nc3ccccn3)n2)cc(OC)c1OC | > 4.5 µg/mL
61 | COc1cc(Nc2ncnc(Nc3cccc(C(C)=O)c3)n2)cc(OC)c1OC | 0.4 to 2.4 µg/mL (≈ 1.01 to 6.07 µM)
62 | COc1cc(Nc2ncnc(-n3c(NCc4nccs4)nc4ccccc43)n2)cc(OC)c1OC | 2.4 to 3.5 µg/mL (≈ 4.89 to 7.13 µM)
63 | CN(c1cccc(Br)c1)c1ncnc(Nc2cccc(Cc3nnn[nH]3)c2)n1 | < 0.4 µg/mL
64 | CCOC(=O)Cc1ccc(Nc2ncnc(-c3ccccc3)n2)cc1 | > 4.5 µg/mL
65 | COc1cc(Nc2ncnc(-n3c(NCc4cccc([N+](=O)[O-])c4)nc4ccccc43)n2)cc(OC)c1OC | > 4.5 µg/mL
66 | O=c1[nH]c2ccccc2n1-c1ncnc(Nc2cccc(S(=O)(=O)CCO)c2)n1 | > 4.5 µg/mL
67 | COc1cc(Nc2ncnc(N(CC(=O)O)c3ccc4c(c3)OCO4)n2)cc(OC)c1OC | 0.4 to 2.4 µg/mL (≈ 0.878 to 5.27 µM)
68 | COc1cc(Nc2ncnc(-n3cc(CC(N)=O)c4ccccc43)n2)cc(OC)c1OC | > 4.5 µg/mL
69 | CC[C@H]1CN(c2ccc(-c3ncnc(Nc4cc(OC)c(OC)c(OC)c4)n3)cn2)CCN1 | > 4.5 µg/mL
70 | COc1cc(Nc2ncnc(-c3cccnc3NC3CCCCC3)n2)cc(OC)c1OC | > 4.5 µg/mL
71 | COc1cc(Nc2ncnc(-n3c(N[C@H](CO)c4ccccc4)nc4ccccc43)n2)cc(OC)c1OC | > 4.5 µg/mL
72 | Nc1nc2ccccc2n1-c1ncnc(Nc2cccc(CC(=O)O)c2)n1 | > 4.5 µg/mL
73 | COc1cc(Nc2ncnc(-n3c(NCc4ccc(Cl)cc4)nc4ccccc43)n2)cc(OC)c1OC | > 4.5 µg/mL
74 | COc1ccc2c(c1)nc(Cl)n2-c1ncnc(Nc2cc(OC)c(OC)c(OC)c2)n1.COc1ccc2nc(Cl)n(-c3ncnc(Nc4cc(OC)c(OC)c(OC)c4)n3)c2c1 | > 4.5 µg/mL
75 | COc1cc(Nc2ncnc(Nc3ccc(O)cc3)n2)cc(OC)c1OC | 0.4 to 2.4 µg/mL (≈ 1.08 to 6.5 µM)
76 | CCN(CC)C(=O)C1CCCN(c2ncnc(Nc3cc(OC)c(OC)c(OC)c3)n2)C1 (stereo not drawn) | > 4.5 µg/mL
77 | COc1cc(Nc2ncnc(Cc3ccc4c(cnn4Cc4ccccc4)c3)n2)cc(OC)c1OCCN1CCOCC1 | < 0.4 µg/mL
78 | CCN(CC)CCOc1ccc(Nc2ncnc(-n3c(N)nc4ccccc43)n2)cc1OC | > 4.5 µg/mL

Row | Compound | IC50
79 | CN(c1ccc2c(cnn2Cc2ccccc2)c1)c1ncnc(Nc2cccc(Cc3nnn[nH]3)c2)n1 | < 0.4 µg/mL
80 | COc1cc(Nc2ncnc(-c3cccnc3NC3CCN(Cc4ccccc4)CC3)n2)cc(OC)c1OC | > 4.5 µg/mL
81 | COc1ccc(CNc2nc3ccccc3n2-c2ncnc(Nc3cccc(CC(=O)O)c3)n2)cc1 | > 4.5 µg/mL
82 | COc1cc(Nc2ncnc(-n3c(N[C@@H](CO)c4ccccc4)nc4ccccc43)n2)cc(OC)c1OC | 0.4 to 2.4 µg/mL (≈ 0.779 to 4.67 µM)
83 | COc1ccc(Nc2ncnc(Nc3ccc4c(c3)CCC4)n2)cc1OC | 0.4 to 2.4 µg/mL (≈ 1.1 to 6.6 µM)
84 | CCOC(=O)C(Cc1cccc(Nc2ncnc(Nc3cc(-c4ccco4)n[nH]3)n2)c1)(NC(C)=O)C(=O)OCC | > 4.5 µg/mL
85 | COc1ccc2c(c1)nc(Nc1ccc3[nH]ccc3c1)n2-c1ncnc(Nc2cc(OC)c(OC)c(OC)c2)n1.COc1ccc2nc(Nc3ccc4[nH]ccc4c3)n(-c3ncnc(Nc4cc(OC)c(OC)c(OC)c4)n3)c2c1 | > 4.5 µg/mL
86 | CN(c1cccc(Cl)c1)c1ncnc(Nc2cc(C(C)(C)C)on2)n1 | > 4.5 µg/mL
87 | COc1ccc(CNc2ncnc(Nc3ccc4c(cnn4Cc4ccccc4)c3)n2)cc1OC | 3.5 to 4.5 µg/mL (≈ 7.49 to 9.62 µM)
88 | NC(=O)c1ccc(Nc2ncnc(-c3ccccc3)n2)cc1 | > 4.5 µg/mL
89 | Clc1ccccc1Nc1ncnc(-n2cccc2)n1 | > 4.5 µg/mL
90 | CC(=O)NCc1ccc(Nc2ncnc(Nc3cc(-c4ccco4)n[nH]3)n2)cc1 | 0.4 to 2.4 µg/mL (≈ 1.02 to 6.15 µM)
91 | COC(=O)c1cccc(Nc2ncnc(-n3c(Cl)nc4ccccc43)n2)c1 | 2.4 to 3.5 µg/mL (≈ 6.3 to 9.19 µM)
92 | Nc1ncnc(Nc2nc(-c3ccc(Cl)cc3)cs2)n1 | > 4.5 µg/mL
93 | CC1CCc2ccccc2N1c1ncnc(N2c3ccccc3CCC2C)n1 (stereo not drawn) | 2.4 to 3.5 µg/mL (≈ 6.46 to 9.42 µM)
94 | COc1cc(Nc2ncnc(-n3c(NCCCc4ccccc4)nc4ccccc43)n2)cc(OC)c1OC | > 4.5 µg/mL
95 | COC(=O)c1ccc(-c2cc(Nc3ncnc(Nc4cccc(CC(N)=O)c4)n3)[nH]n2)cc1 | 3.5 to 4.5 µg/mL (≈ 7.87 to 10.1 µM)
96 | COc1ccccc1Nc1ncnc(-c2ccccc2)n1 | > 4.5 µg/mL
97 | COc1cc(Nc2ncnc(Nc3cc(F)cc(C(F)(F)F)c3)n2)cc(OC)c1OC | < 0.4 µg/mL
98 | COc1cc(Nc2ncnc(Nc3nc(C)cs3)n2)cc(OC)c1OC | 0.4 to 2.4 µg/mL (≈ 1.07 to 6.41 µM)
99 | CCN(CC)CCOc1cc(Nc2ncnc(Nc3cc(OC)c(OC)c(OC)c3)n2)ccc1OC | > 4.5 µg/mL
100 | COc1cc(Nc2ncnc(-c3ccnc(N4CCCCC4)c3)n2)cc(OC)c1OC | > 4.5 µg/mL
101 | c1ccc(-c2ncnc(Nc3ccc(OCCCN4CCOCC4)cc3)n2)cc1 | > 4.5 µg/mL
102 | COc1cc(Nc2ncnc(-n3cnc4ccccc43)n2)cc(OC)c1OC | 3.5 to 4.5 µg/mL (≈ 9.25 to 11.9 µM)
103 | CCc1ccc(Nc2nc3ccccc3n2-c2ncnc(Nc3cc(OC)c(OC)c(OC)c3)n2)cc1 | < 0.4 µg/mL
